Legend:
Assay type in all cases: in vivo
Alopecurus myosuroides = test: Post-emergence herbicidal action; conditions: 80 g of a.i./ha
Method: (§1) Seeds of mono- and dicotyledonous harmful plants are placed in sandy loam in cardboard pots, covered with soil and grown in the greenhouse under good growth conditions. Two to three weeks after sowing, the test plants are treated at the three-leaf stage. The compounds according to the invention, which are formulated as wettable powders or as emulsion concentrates, are sprayed at an application rate of 600 to 800 l of water/ha (converted) in a dosage of 80 grams per hectare onto the surface of the green plant parts. The visual scoring of the damage to the harmful plants is carried out 3-4 weeks after the treatment. Here, the compounds of Nos. 1-39, 1-40, 1-1382 and 1-2091 show an activity of at least 90% against Echinochloa crus galli. The compounds of Nos. 1-3, 1-44 and 1-2091 shown an activity of at least 90% against Abutilon theophrasti. The compounds of Nos. 1-39, 1-40 and 1-1382 show an activity of at least 90% against Veronica persica. The compounds of Nos. 1-3, 1-38, 1-39, 1-1406 and 1-1407 show an activity of at least 90% against Stellaria media.
(§2) The comparative tests of Tables 1 to 24 below show the superiority of the compounds according to the invention over the compounds known from the prior art.
(§3) • ABUTH Abutilon theophrasti ALOMY Alopecurus myosuroides • AMARE Amaranthus retroflexus AVEFA Avena fatua • CHEAL Chenopodium album ECHCG Echinochloa crus galli • GALAP Galium aparine LOLMU Lolium multiflorum • MATIN Matricaria inodora PHBPU Pharbitis purpureum • POLCO Fallopia convolvulus STEME Stellaria media • VERPE Veronica persica VIOTR Viola tricolor • XANST Xanthium strumarium Crop Plants • GLXMA Glycine max (soybeans) TRZAS Triticum aestivum (wheat) • ZEAMX Zea mays (corn)

Avena fatua = test: Post-emergence herbicidal action; conditions: 80 g of a.i./ha
Method: as §1, §2, §3

Echinochloa crus galli = test: Post-emergence herbicidal action; conditions: 80 g of a.i./ha, visual scoring 3-4 weeks after treatment, read-out: Herbicidal activity in % against ECHCG
Method: as §1, §2, §3

Lolium multiflorum = test: Post-emergence herbicidal action; conditions: 80 g of a.i./ha
Method: as §1, §2, §3

Abutilon theophrasti = test: Post-emergence herbicidal action; conditions: Abutilon theophrasti, 80 g of a.i./ha, visual scoring 3-4 weeks after treatment, read-out: Herbicidal activity in % against ABUTH
Method: as §1, with “The compounds according to the invention, which are formulated as wettable powders or as emulsion concentrates, are sprayed at an application rate of 600 to 800 l of water/ha (converted) in a dosage of 80 grams per hectare onto the surface of the green plant parts.” left out
as §2, §3

Chenopodium album = test: Pre-emergence herbicidal action; conditions: 320 g of a.i./ha
Description: (§4) Seeds or rhizome pieces of mono- and dicotyledonous harmful plants are placed in sandy loam in pots of a diameter of 9 to 13 cm and covered with soil. The herbicides, formulated as emulsifiable concentrates or dusts, are applied to the surface of the covering soil in the form of aqueous dispersions or suspensions or emulsions at an application rate of 300 to 800 l of water/ha (converted), at a dosage of 320 grams per hectare. For further cultivation of the plants, the pots are then kept in a greenhouse under optimum conditions. The visual scoring of the damage to the harmful plants is carried out 3-4 weeks after the treatment. Here, the compounds of Nos. 1-3, 1-15, 1-44 and 1-1407 show an activity of at least 90% against Echinochloa crus galli. The compounds of Nos. 1-15, 1-45, 1-1407 and 1-1419 show an activity of at least 90% against Abutilon theophrasti. The compounds of Nos. 1-3, 1-45, 1-1406 and 1-1418 show an activity of at least 90% against Amaranthus retroflexus. The compounds of Nos. 1-44, 1-1406, 1-1407 and 1-1419 show an activity of at least 90% against Stellaria media.
as §2, §3

Galium aparine = test: Pre-emergence herbicidal action; conditions: 320 g of a.i./ha
Description: as §4, §2, §3

Glycine max (soybeans) = test: Pre-emergence damage of crop plants; conditions: 320 g of a.i./ha, crop plant soybeans
Description: as §4, §2, §3

[1] = test system: Triticum aestivum (wheat); test: Pre-emergence damage of crop plants; conditions: 320 g of a.i./ha, crop plant wheat
Description: as §4, §2, §3

For `Cn1nc(C2CC2)c(C(=O)c2ccc(Cl)c(S(C)(=O)=O)c2Cl)c1O` [drawing 56, reference compound], the “Herbicidal activity in % against ALOMY” value (Alopecurus myosuroides) was 20%, the “Herbicidal activity in % against AVEFA” value (Avena fatua) was 20% and the pest or weed control at 80 g/ha (Echinochloa crus galli) was 30%. For the same compound, the “Herbicidal activity in % against LOLMU” value (Lolium multiflorum) was 20% and the pest or weed control at 80 g/ha (Abutilon theophrasti) was 60%.
For `Cn1nc(C2CC2)c(C(=O)c2ccc(Cl)c(S(=O)(=O)CC3CC3)c2Cl)c1O` [drawing 55], the “Herbicidal activity in % against ALOMY” value (Alopecurus myosuroides) was 70%, the “Herbicidal activity in % against AVEFA” value (Avena fatua) was 50% and the pest or weed control at 80 g/ha (Echinochloa crus galli) was 90%. The “Herbicidal activity in % against LOLMU” value (Lolium multiflorum) was 60% and the pest or weed control at 80 g/ha (Abutilon theophrasti) was 70%.
In the case of `CCS(=O)(=O)c1c(S(C)(=O)=O)ccc(C(=O)c2c(C3CC3)nn(C)c2O)c1C` [drawing 38, reference compound], the “Herbicidal activity in % CHEAL” value (Chenopodium album) is reported as 90%, the “Herbicidal activity in % GALAP” value (Galium aparine) is reported as 90% and the “Damage to GLXMA” value (Glycine max (soybeans)) is reported as 50. The “Damage to TRZAS” value [1] was 50.

From US7943551B2, “3-cyclopropyl-4-(3-thiobenzoyl) pyrazoles and their use as herbicides” (Bayer Cropscience AG, priority 2007, dated 2011)
